Reference: US6407265B2, “Tin polyoxaalkanecarboxylates and compositions containing them” (priority 1998, dated 2002)
Values after ≈ are worked out from the molar mass of the structure shown.

Assays:
WiDr (colon carcinoma) = assay type: cell-based, human; conditions: in vitro, WiDr colon carcinoma cell line
EVSA-T (mammary cancer) = assay type: cell-based, human; conditions: in vitro, EVSA-T mammary cancer cell line
Description: (§1) The ID50 inhibition doses in ng/ml of the tested compounds are given in the table as well as those for some known reference compounds.

IGROV (ovarian cancer) = assay type: cell-based, human; conditions: in vitro, IGROV ovarian cancer cell line
M19 MEL (melanoma) = assay type: cell-based, human; conditions: in vitro, M19 MEL melanoma cell line
MCF-7 (mammary cancer) = assay type: cell-based, human; conditions: in vitro, MCF-7 mammary cancer cell line
Description: as §1

[1] = system: H226 (non small cell lung cancer); assay type: cell-based, human; conditions: in vitro, H226 non small cell lung cancer cell line
A 498 (renal cancer) = assay type: cell-based, human; conditions: in vitro, A 498 renal cancer cell line
[2] = Stability in the presence of water (117Sn NMR); assay type: physicochemical; conditions: CD3CD2OD solution, increasing amounts of D2O added, resonance regularly slightly shifted
Description: The stability in the presence of water of four compounds, 6, 8, 9 and 12, was determined.

Row | Molecule | ID50 inhibition dose WiDr (WiDr (colon carcinoma)) [µg/mL] | ID50 inhibition dose EVSA-T (EVSA-T (mammary cancer)) [µg/mL] | ID50 inhibition dose IGROV (IGROV (ovarian cancer)) [µg/mL] | ID50 inhibition dose M19 (M19 MEL (melanoma)) [µg/mL] | ID50 inhibition dose MCF-7 (MCF-7 (mammary cancer)) [µg/mL] | ID50 inhibition dose H226 [1] [µg/mL] | ID50 inhibition dose A498 (A 498 (renal cancer)) [µg/mL] | Stability in the presence of water [2]
1 | N.N.[Cl][Pt][Cl] [cisplatin, reference compound] | 0.967 | 0.422 | 0.169 | 0.558 | 0.699 | 3.269 | 2.253 | –
2 | CCC[CH2][Sn]([CH2]CCC)([CH2]CCC)[O]C(=O)c1ccc2c(c1)OCCOCCOCCOCCO2 [Compound 6, tri-n-butyltin 4,7,10,13,16-pentaoxadicyclo[13.4.0]cosa-1,3 (17),18-triene-1-carboxylate] | <0.003 | <0.003 | <0.003 | <0.003 | <0.003 | <0.003 | <0.003 | single resonance
3 | CCC[CH2][Sn+2][CH2]CCC.O=C([O-])c1ccc2c(c1)OCCOCCOCCOCCOCCO2.O=C([O-])c1ccc2c(c1)OCCOCCOCCOCCOCCO2 [Compound 3] | 0.781 | 0.128 | 0.26 | 0.219 | 0.155 | 0.281 | 0.282 | –
4 | COc1cc([C@@H]2c3cc4c(cc3[C@@H](O[C@@H]3O[C@@H]5CO[C@@H](C)O[C@H]5[C@H](O)[C@H]3O)[C@H]3COC(=O)[C@H]23)OCO4)cc(OC)c1O [etoposide, reference compound] | 0.15 (≈ 0.255 µM) | – | 0.58 (≈ 0.985 µM) | 0.505 (≈ 0.858 µM) | – | 3.934 (≈ 6.68 µM) | 1.314 (≈ 2.23 µM) | –
5 | CCC[CH2][Sn]([CH2]CCC)([CH2]CCC)[O]C(=O)c1ccc2c(c1)OCCOCCOCCOCCOCCO2 [Compound 2, tri-n-butyltin 4,7,10,13,16,19-hexaoxadicyclo[16.4.0]dicosa-1,3(20),21-triene-1-carboxylate] | 0.011 | 0.006 | 0.03 | 0.07 | 0.035 | 0.1 | 0.097 | –
6 | O=C([O][Sn]([c]1ccccc1)([c]1ccccc1)[c]1ccccc1)c1ccc2c(c1)OCCOCCOCCOCCO2 [Compound 5, triphenyltin 4,7,10,13,16-pentaoxadicyclo[13.4.0]cosa-1,3 (17),18-triene-1-carboxylate] | <0.003 | <0.003 | <0.003 | <0.003 | <0.003 | <0.003 | <0.003 | –
7 | O=c1[nH]cc(F)c(=O)[nH]1 [5-fluoro-uracil, reference compound] | 0.225 (≈ 1.73 µM) | 0.475 (≈ 3.65 µM) | 0.297 (≈ 2.28 µM) | 0.442 (≈ 3.4 µM) | 0.75 (≈ 5.77 µM) | 0.34 (≈ 2.61 µM) | 0.143 (≈ 1.1 µM) | –
8 | COCCOCC(=O)[O][Sn]([c]1ccccc1)([c]1ccccc1)[c]1ccccc1 [Compound 8, triphenyltin 3,6-diheptanoate] | 0.034 | 0.012 | 0.037 | 0.031 | 0.013 | 0.033 | 0.032 | single resonance
9 | triphenyltin 3,6,9-trioxadecanoate [Compound 12] | 0.019 | 0.009 | 0.033 | 0.024 | 0.009 | 0.025 | 0.021 | single resonance
